Experimental data published in PubChem BioAssay (NCI).
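A five-concentration, 48-hour dose response in 96-well plates underlies each endpoint, interpolated linearly between surrounding concentrations. The concentration for 50% growth inhibition is given as GI50. TGI: concentration producing complete growth inhibition.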

Columns and labels:
Assay in all cases: NCI anticancer screen, dose series, 48 h
[1] = test system: NCI/ADR-RES ovarian
[2] = test system: COLO 205 colon
[3] = test system: HOP-92 NSCLC
[4] = test system: OVCAR-8 ovarian
[5] = test system: MDA-MB-435
[6] = test system: HOP-62 NSCLC
[7] = test system: SF-268 CNS
[8] = test system: HCT-15 colon
[9] = test system: ACHN renal
[10] = test system: HL-60(TB) leukemia

| Structure (SMILES) | TGI [1] [µM] | TGI [2] [µM] | TGI [3] [µM] | TGI [4] [µM] | TGI [5] [µM] | TGI [6] [µM] | TGI [7] [µM] | TGI [8] [µM] | TGI [9] [µM] | TGI [10] [µM] | GI50 [1] [µM] | GI50 [2] [µM] | GI50 [4] [µM] | GI50 [5] [µM] | GI50 [6] [µM] | GI50 [7] [µM] | GI50 [10] [µM] | GI50 [8] [µM] | GI50 [9] [µM] |
| --- | --- | --- | --- | --- | --- | --- | --- | --- | --- | --- | --- | --- | --- | --- | --- | --- | --- | --- | --- |
| Cn1c(COC(=O)NC2CCCCC2)c(COC(=O)NC2CCCCC2)c2ccc3ccccc3c21 | 62 | > 100 | > 100 | > 100 | > 100 | > 100 | > 100 | > 100 | 53.6 | – | – | – | – | – | – | – | – | – | – |
| N#CC(c1cc(Cl)ncn1)c1nc2cc(C(F)(F)F)ccc2s1 (stereo not drawn) | 9.5 | 10.8 | 5.92 | 13.5 | > 100 | 30.9 | 19.4 | 13.6 | 59.6 | – | – | – | – | – | – | – | – | – | – |
| N#Cc1nc(-c2ccsc2)oc1N | – | – | > 100 | > 100 | > 100 | > 100 | > 100 | > 100 | > 100 | > 100 | – | – | – | – | – | – | – | – | – |
| Nc1c(-c2ccccc2)c2ccc([N+](=O)[O-])cc2c(=O)n1-c1cccc(C(=O)O)c1 | > 100 | – | – | > 100 | > 100 | > 100 | > 100 | > 100 | > 100 | > 100 | – | – | – | – | – | – | – | – | – |
| COC1=C(OC)C(=O)C(Cc2c(-c3ccccc3)nc3sc(Cl)cn23)=C(C)C1=O | 39.9 | 33.5 | – | 32.9 | 33.1 | 38.2 | 41.2 | 36.1 | 30.7 | 24.7 | – | – | – | – | – | – | – | – | – |
| COc1ccc(C2CC(c3cccc(Nc4ccncc4)c3)=NN2c2ccccc2)cc1 (stereo not drawn) | 3.46 | 6.14 | – | 4.77 | 3.49 | 5.81 | 9.98 | 3.44 | 3.28 | 4.06 | 1.74 | 2.66 | 2.19 | 1.78 | 2.25 | 2.91 | 2 | 1.74 | 1.81 |
| COc1cc(-c2cc(OC)c(OC)c3ccc(Br)cc23)c2cc(Br)ccc2c1OC | 90.1 | > 100 | 40.3 | – | 46.1 | 44.7 | 50.8 | > 100 | 51.4 | – | – | – | – | – | – | – | – | – | – |
| CCOC(=O)CC1C(C(=O)OCC)=Cn2c([nH]c3cccc4cccc2c43)=C1C(=O)OCC (stereo not drawn) | > 100 | > 100 | > 100 | > 100 | > 100 | > 100 | – | > 100 | > 100 | > 100 | – | – | – | – | – | – | – | – | – |
| CCOC(=O)NCC(=O)NCC(=O)NCC(N)=O | > 100 | > 100 | – | > 100 | > 100 | > 100 | > 100 | > 100 | > 100 | – | – | – | – | – | – | – | – | – | – |
| CC(C)C(Nc1c2ccccc2[n+](C)c2ccccc12)C(=O)O (stereo not drawn) | – | > 100 | – | > 100 | – | > 100 | > 100 | > 100 | > 100 | > 100 | – | – | – | – | – | – | – | – | – |
| Cc1cc(S(=O)(=O)NC2=NCc3c(F)cccc3N2)c(S)cc1Cl | > 100 | > 100 | > 100 | > 100 | > 100 | – | > 100 | > 100 | > 100 | > 100 | – | – | – | – | – | – | – | – | – |
| Nc1ccc2c3c1cccc3c(=O)n1c3ccc(Cc4ccc5c(c4)nc4c6ccc(N)c7cccc(c(=O)n54)c76)cc3nc21 | > 100 | > 100 | > 100 | > 100 | > 100 | > 100 | – | – | > 100 | > 100 | – | – | – | – | – | – | – | – | – |
| CCOC(=O)/C(=C/c1cn(C(C)=O)c2ccccc12)P(=O)(OC)OC | > 100 | – | > 100 | > 100 | > 100 | > 100 | – | > 100 | > 100 | 48.4 | – | – | – | – | – | – | – | – | – |
| O=C(O)C1C2OC(C(Br)C2Br)C1C(=O)O (stereo not drawn) | > 100 | > 100 | – | > 100 | > 100 | > 100 | > 100 | > 100 | > 100 | > 100 | – | – | – | – | – | – | – | – | – |
| O=c1[nH]c2ccccc2c(=O)n1/N=C\c1ccccc1O | – | > 100 | > 100 | – | > 100 | > 100 | > 100 | > 100 | > 100 | > 100 | – | – | – | – | – | – | – | – | – |
| O=C(CCCCCCCCC(=O)N1C(=O)CC(=O)N(c2ccc(Cl)cc2)C1=S)N1C(=O)CC(=O)N(c2ccc(Cl)cc2)C1=S | > 100 | > 100 | > 100 | > 100 | > 100 | > 100 | > 100 | > 100 | > 100 | – | – | – | – | – | – | – | – | – | – |
| CC1OC23CCCCC2C(C#N)(C#N)C1(C#N)C(=N)O3 (stereo not drawn) | > 100 | 38.5 | 29.3 | 54.1 | 50.9 | – | 60.3 | 37.6 | 42.8 | 22.1 | – | – | – | – | – | – | – | – | – |
